What was measured:
[1] = biological target: T1, human muscarinic 2 (Homo sapiens, UniProt P08172); assay: Eurofins LeadProfilingScreen, human muscarinic 2 (binding); conditions: 10 μM (binding)
T1 sequence (P08172 1-466): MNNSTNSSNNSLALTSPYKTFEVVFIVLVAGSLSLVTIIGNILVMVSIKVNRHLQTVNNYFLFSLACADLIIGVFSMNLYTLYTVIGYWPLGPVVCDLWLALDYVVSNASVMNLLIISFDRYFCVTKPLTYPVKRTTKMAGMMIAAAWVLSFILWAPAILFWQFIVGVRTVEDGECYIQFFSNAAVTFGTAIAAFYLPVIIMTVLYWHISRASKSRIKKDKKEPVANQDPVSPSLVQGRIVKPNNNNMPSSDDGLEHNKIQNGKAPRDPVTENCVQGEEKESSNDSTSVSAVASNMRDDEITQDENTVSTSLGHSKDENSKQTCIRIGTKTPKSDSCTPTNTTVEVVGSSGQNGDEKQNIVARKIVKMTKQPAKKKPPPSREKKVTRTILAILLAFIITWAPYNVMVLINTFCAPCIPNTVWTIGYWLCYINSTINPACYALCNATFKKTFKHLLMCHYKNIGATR
Protocol: Compound 70 was tested using Eurofins LeadProfilingScreen®, which detects potential off-target activity and determines relative selectivity. The screen includes 68 primary molecular targets, including several CNS targets recommended by the EMEA (European Medicines Evaluation Agency) to evaluate drug dependence potential.

[2] = Cyno intrinsic clearance; format: in vitro ADME; conditions: cynomolgus monkey
Protocol: (§1) Compound 70 was tested in several in in vitro assays to investigate both metabolism and pharmacokinetics. These assays may be performed according to known methods as generally described in the following references: Conde-Ceide et al. ACS Med. Chem. Lett. 2015, 6, 716-720; Morris et al. J. Med. Chem. 2014, 57, 10192-10197; and Bubser et al. ACS Chem. Neurosci. 2014, 5, 920-942.

[3] = Human intrinsic clearance; format: in vitro ADME
Protocol: as §1

Cc1c(N2CCc3nc(C4(F)CC4)sc3C2)nc2nn(C)c(=O)n2c1C [Compound 70, 7-(2-(1-fluorocyclopropyl)-6,7-dihydrothiazolo[5,4-c]pyridin-5(4H)-yl)-2,5,6-trimethyl-[1,2,4]triazolo[4,3-a]pyrimidin-3(2H)-one]
inhibition at 10 µM [1]: 58% | CLint scaled [2]: 24 mL/min/kg | CLint scaled [3]: 9 mL/min/kg

Source: patent publication US12139498B1, “Positive allosteric modulators of the muscarinic acetylcholine receptor M4” (Vanderbilt University, priority 2023, dated 2024)
